Data from the NIST ThermoML archive (doi:10.1021/acs.jced.9b00147).

Assay: xn = mol fraction of the nth substance listed
Details: 101.3 kPa, Liquid; for speed of sound: Single path-length method; for mass density: Vibrating tube method

CC(=O)[O-].[NH3+]CCO [2-hydroxyethylammonium acetate] + CC(C)O
Details | mass density, 293.15 K [kg/m3] | mass density, 303.15 K [kg/m3] | mass density, 313.15 K [kg/m3] | mass density, 323.15 K [kg/m3] | speed of sound, 293.15 K [m/s] | speed of sound, 303.15 K [m/s] | speed of sound, 313.15 K [m/s] | speed of sound, 323.15 K [m/s]
x1 = 0.102 | 840.8 | 832.7 | 824.4 | 815.7 | 1218.6 | 1184.9 | 1151 | 1116.9
x1 = 0.2 | 888.4 | 880.8 | 872.9 | 864.8 | 1275.2 | 1242.9 | 1210.5 | 1177.8
x1 = 0.299 | 930.8 | 923.5 | 916 | 908.3 | 1334 | 1302.6 | 1271.5 | 1240.1
x1 = 0.397 | 970.4 | 963.3 | 956.2 | 948.5 | 1397.5 | 1366.2 | 1335.9 | 1305.6
x1 = 0.493 | 1007 | 999.7 | 992.8 | 985.5 | 1465.1 | 1435.1 | 1405.8 | 1376.6
x1 = 0.6 | 1042 | 1037 | 1030 | 1023 | 1549.8 | 1516.7 | 1487.9 | 1460.2
x1 = 0.692 | 1072 | 1066 | 1060 | 1052 | 1620.1 | 1588.6 | 1559.5 | 1532.3
x1 = 0.798 | 1103 | 1097 | 1091 | 1085 | 1701.8 | 1666.8 | 1638.2 | 1612
x1 = 0.894 | 1129 | 1124 | 1118 | 1112 | 1779 | 1742.8 | 1713.8 | 1687.8
x1 = 1 | 1150 | 1144 | 1139 | 1132 | 1812.9 | 1781.2 | 1754.7 | 1730.9

CC(=O)[O-].OCC[NH2+]CCO [2,2'-azanediylbis(ethanol) acetate] + CCCO
Details | mass density, 293.15 K [kg/m3] | mass density, 303.15 K [kg/m3] | mass density, 313.15 K [kg/m3] | mass density, 323.15 K [kg/m3] | speed of sound, 293.15 K [m/s] | speed of sound, 303.15 K [m/s] | speed of sound, 313.15 K [m/s] | speed of sound, 323.15 K [m/s]
x1 = 0.096 | 869.5 | 861.6 | 853.5 | 845.4 | 1286.3 | 1253.5 | 1221.2 | 1188.8
x1 = 0.199 | 929 | 921.2 | 913.4 | 905.7 | 1352.7 | 1321 | 1289.8 | 1258.8
x1 = 0.295 | 975 | 967.5 | 959.9 | 952 | 1415.2 | 1384.2 | 1353.6 | 1323.1
x1 = 0.4 | 1018 | 1012 | 1004 | 996.6 | 1488.2 | 1457.2 | 1427.3 | 1397.4
x1 = 0.501 | 1054 | 1047 | 1040 | 1033 | 1556.5 | 1524.7 | 1494.6 | 1465.4
x1 = 0.599 | 1085 | 1078 | 1072 | 1065 | 1626.4 | 1590.7 | 1559.2 | 1529.2
x1 = 0.697 | 1113 | 1106 | 1099 | 1093 | 1701.1 | 1657.4 | 1623.2 | 1592.3
x1 = 0.801 | 1137 | 1131 | 1124 | 1118 | 1756.5 | 1720.1 | 1688.9 | 1659.2
x1 = 0.901 | 1160 | 1153 | 1146 | 1140 | 1817.8 | 1772.9 | 1738.1 | 1707.4
x1 = 1 | 1180 | 1173 | 1167 | 1160 | 1884.7 | 1828.2 | 1788.6 | 1756

CC(=O)[O-].OCC[NH2+]CCO [2,2'-azanediylbis(ethanol) acetate] + CC(C)O
Details | mass density, 293.15 K [kg/m3] | mass density, 303.15 K [kg/m3] | mass density, 313.15 K [kg/m3] | mass density, 323.15 K [kg/m3] | speed of sound, 293.15 K [m/s] | speed of sound, 303.15 K [m/s] | speed of sound, 313.15 K [m/s] | speed of sound, 323.15 K [m/s]
x1 = 0.102 | 857.7 | 849.5 | 841.1 | 832.5 | 1233.4 | 1200.3 | 1167.1 | 1133.6
x1 = 0.2 | 915.4 | 907.6 | 899.4 | 891.4 | 1301.5 | 1269.6 | 1237.8 | 1205.8
x1 = 0.299 | 965.3 | 957.7 | 949.8 | 942.3 | 1372.4 | 1341.2 | 1310.1 | 1279.1
x1 = 0.398 | 1009 | 1001 | 993.2 | 986.6 | 1448.2 | 1416.7 | 1386.3 | 1355.2
x1 = 0.502 | 1048 | 1041 | 1034 | 1025 | 1530.5 | 1498.3 | 1468.4 | 1438.7
x1 = 0.59 | 1076 | 1069 | 1061 | 1056 | 1596.5 | 1561.8 | 1530.4 | 1498.8
x1 = 0.696 | 1109 | 1102 | 1095 | 1089 | 1675.3 | 1638.8 | 1607 | 1576.7
x1 = 0.799 | 1137 | 1131 | 1124 | 1118 | 1756.3 | 1717.6 | 1684.7 | 1653.8
x1 = 0.9 | 1162 | 1155 | 1149 | 1142 | 1828.4 | 1782.1 | 1746.8 | 1714.4
x1 = 1 | 1180 | 1173 | 1167 | 1160 | 1884.7 | 1828.2 | 1788.6 | 1756

CC(=O)[O-].[NH3+]CCO [2-hydroxyethylammonium acetate] + CCCO
Details | mass density, 293.15 K [kg/m3] | mass density, 303.15 K [kg/m3] | mass density, 313.15 K [kg/m3] | mass density, 323.15 K [kg/m3] | speed of sound, 293.15 K [m/s] | speed of sound, 303.15 K [m/s] | speed of sound, 313.15 K [m/s] | speed of sound, 323.15 K [m/s]
x1 = 0.101 | 855.6 | 847.8 | 839.9 | 831.9 | 1274.5 | 1241.6 | 1208.9 | 1176.3
x1 = 0.199 | 900 | 892.5 | 884.8 | 877.1 | 1323.5 | 1291.7 | 1260.2 | 1228.7
x1 = 0.298 | 941.7 | 934.5 | 927.2 | 919.6 | 1377.3 | 1346.4 | 1316 | 1285.6
x1 = 0.401 | 981.1 | 974.1 | 967.3 | 960.3 | 1437.7 | 1407.8 | 1378.3 | 1348.9
x1 = 0.502 | 1016 | 1010 | 1003 | 996.3 | 1502 | 1472.9 | 1444.4 | 1416.3
x1 = 0.592 | 1046 | 1040 | 1033 | 1027 | 1561.1 | 1532.2 | 1504.3 | 1477
x1 = 0.681 | 1073 | 1067 | 1061 | 1055 | 1624.3 | 1595.1 | 1567.7 | 1541.3
x1 = 0.795 | 1104 | 1098 | 1092 | 1086 | 1711.5 | 1678.6 | 1650.8 | 1624
x1 = 0.89 | 1130 | 1124 | 1118 | 1112 | 1777.8 | 1743.4 | 1715.9 | 1690.2
x1 = 1 | 1150 | 1144 | 1139 | 1133 | 1812.9 | 1781.2 | 1754.7 | 1730.9
